Laboratory results published in patent publication US20150246898A1, “METALLOENZYME INHIBITOR COMPOUNDS” (DOW AGROSCIENCES LLC, priority 2012, published 2015).
Values after ≈ are worked out from the molar mass of the structure shown.

Tests used:
[1] = tested on: Septoria tritici (ATCC 26517); experiment: Minimum Inhibitory Concentration (MIC) vs. Septoria tritici, CLSI-based microdilution; assay type: cell-based; conditions: Zymoseptoria tritici, ATCC26517, 168 h; MIC = 50% reduction in growth of S. tritici, 7 days at 22 °C, RPMI/MOPS, 1% DMSO; read-out: Septoria Rating (MIC)
Description: Compounds of the present disclosure were assessed for their ability to inhibit the growth of a common strain of the fungal plant pathogen Septoria tritici (ATCC 26517) using a procedure based on a Clinical and Laboratory Standards Institute (CLSI) microdilution assay protocol for filamentous fungi. Stock solutions of the test compounds and standards were prepared in DMSO at 6400 μg/mL. Each stock solution was used to prepare a 2-fold dilution series ranging from 16 to 0.016 μg/mL (total of 11 compound concentrations) in RPMI-1640 (Roswell Park Memorial Institute) medium containing 3-(N-morpholino)propanesulfonic acid (MOPS) buffer and 2% DMSO. A 100 μL aliquot of the dilutions was added to columns 1 (16 μg/mL compound) through 11 (0.016 μg/mL compound) of a 96-well microtiter plate. This format was replicated in a second row of the microtiter plate. Thus, each microtiter plate could include 11 concentrations of four test or control compounds replicated twice. A 100 μL aliquot of RPMI-1640/MOPS/2% DMSO medium was added to column 12 (no compound control) of the microtiter plate. A fresh culture of S. tritici was used to prepare a solution of approximately 5×10^4 colony-forming units per milliliter (cfu/mL) in RPMI/MOPS medium without DMSO. A 100 μL aliquot of this solution was added to all 96 wells in the microtiter plate. […] In each case of Table 3 the Septoria rating scale is as follows: […]

[2] = tested on: Puccinia recondita tritici = Puccinia triticina (PUCCRT); experiment: Fungicidal activity vs. leaf rust on wheat plants (1-day protectant spray); assay type: in vivo; conditions: wheat (variety Yuma) sprayed at 50 ppm, inoculated next day, disease severity evaluated 7-9 days later, read-out: Puccinia Rating (% Disease Control @ 50 ppm)
Text: Each pot contained 3-8 seedlings. These plants were sprayed until wet with the formulated test compounds. The compounds were formulated at 50 ppm in 10 vol. % acetone plus 90 vol. % Triton X water (deionized water 99.99 wt %+0.01 wt % Triton X100), giving a “formulated test compound.” Formulated test compounds were applied to plants using a turn table sprayer fitted with two opposing air atomization nozzles which delivered approximately 1500 L/ha of spray volume. On the following day, the leaves were inoculated with an aqueous spore suspension of Puccinia recondita tritici and the plants were kept in high humidity overnight to permit spores to germinate and infect the leaf. The plants were then transferred to a greenhouse until disease developed on untreated control plants. Disease severity was evaluated 7-9 days later, depending on the speed of disease development. In each case of Table 3, the Puccinia rating scale is as follows: […]

Row | SMILES | MIC [1] | pest or weed control at 50 ppm [2]
1 | Nc1ccc(C#Cc2ccc(C(F)(F)C(O)(c3ccc(Cl)cc3)c3cncnc3)nc2)cc1 (racemic) [Example 55] | 0.5 to 1.5 µg/mL (≈ 1.08 to 3.24 µM) | < 40%
2 | OC(c1cncnc1)(c1ccc(F)cc1F)C(F)(F)c1ccc(C#CCOCC(F)(F)F)cn1 (racemic) [Example 6, 1-(2,4-difluorophenyl)-2,2-difluoro-1-(pyrimidin-5-yl)-2-(5-(3-(2,2,2-trifluoroethoxy)prop-1-ynyl)pyridin-2-yl)ethanol] | > 4 µg/mL | –
3 | OC(c1cncnc1)(C1CC1)C(F)(F)c1ccc(C#Cc2ccc(F)cc2)cn1 (racemic) [Example 70, 1-Cyclopropyl-2,2-difluoro-2-(5-((4-fluorophenyl)ethynyl)pyridin-2-yl)-1-(pyrimidin-5-yl)ethanol] | ≤ 0.5 µg/mL | 80 to 100%
4 | OC(c1cncnc1)(C(F)(F)F)C(F)(F)c1ccc(-c2ccc(Cl)cc2)cn1 (racemic) [Example 71, 1-(5-(4-Chlorophenyl)pyridin-2-yl)-1,1,3,3,3-pentafluoro-2-(pyrimidin-5-yl)propan-2-ol] | ≤ 0.5 µg/mL | –
5 | N#Cc1ccc(C#Cc2ccc(C(F)(F)C(O)(c3cncnc3)c3ccc(F)cc3F)nc2)cn1 (racemic) [Example 17] | 0.5 to 1.5 µg/mL (≈ 1.05 to 3.16 µM) | –
6 | CC(C)C(O)(c1cncnc1)C(F)(F)c1ccc(OCc2ccc(Cl)cc2F)cn1 (racemic) [Example 50] | 1.5 to 4 µg/mL (≈ 3.43 to 9.14 µM) | –
7 | OC(c1ccc(Cl)cc1)(c1cncnc1)C(F)(F)c1ccc(OCc2ccc(Cl)cc2)cn1 (stereo not shown) [Example 69] | – | < 40%
8 | CSc1ccc(C#Cc2ccc(C(F)(F)C(O)(c3cncnc3)c3ccc(F)cc3F)nc2)cc1 (racemic) [Example 22] | 1.5 to 4 µg/mL (≈ 3.03 to 8.07 µM) | –
9 | OCC#Cc1ccc(C(F)(F)C(O)(c2cncnc2)c2ccc(F)cc2F)nc1 (racemic) [Example 8, 3-(6-(2-(2,4-difluorophenyl)-1,1-difluoro-2-hydroxy-2-(pyrimidin-5-yl)ethyl)pyridin-3-yl)prop-2-yn-1-ol] | 0.5 to 1.5 µg/mL (≈ 1.24 to 3.72 µM) | 80 to 100%
10 | N#Cc1cccc(C#Cc2ccc(C(F)(F)C(O)(c3ccc(Cl)cc3)c3cncnc3)nc2)c1 (racemic) [Example 66] | 0.5 to 1.5 µg/mL (≈ 1.06 to 3.17 µM) | –
11 | N#Cc1cccc(C#Cc2ccc(C(F)(F)C(O)(c3cncnc3)c3ccc(F)cc3F)nc2)c1 (racemic) [Example 18, 3-((6-(2-(2,4-Difluorophenyl)-1,1-difluoro-2-hydroxy-2-(pyrimidin-5-yl)ethyl)pyridin-3-yl)ethynyl)benzonitrile] | ≤ 0.5 µg/mL | 80 to 100%
12 | OC(c1cncnc1)(c1ccc(F)cc1F)C(F)(F)c1ccc(C#Cc2ccc(OC(F)F)cc2)cn1 (racemic) [Example 21, 2-(5-((4-(Difluoromethoxy)phenyl)ethynyl)pyridin-2-yl)-1-(2,4-difluorophenyl)-2,2-difluoro-1-(pyrimidin-5-yl)ethanol] | ≤ 0.5 µg/mL | 80 to 100%
13 | OC(c1cncnc1)(c1ccc(F)cc1F)C(F)(F)c1ccc(OCc2ccc(Cl)c(F)c2)cn1 (racemic) [Example 51] | 0.5 to 1.5 µg/mL (≈ 0.985 to 2.95 µM) | 60 to 79%
14 | O=[N+]([O-])c1ccc(COc2ccc(C(F)(F)C(O)(c3cncnc3)c3ccc(F)cc3F)nc2)cc1 (racemic) [Example 58] | 1.5 to 4 µg/mL (≈ 3 to 7.99 µM) | –
15 | OC(c1ccc(Cl)cc1)(c1cncnc1)C(F)(F)c1ccc(Oc2cccc(Cl)c2)cn1 (stereo not shown) [Example 61] | 1.5 to 4 µg/mL (≈ 3.16 to 8.43 µM) | –
16 | CC(C)C(O)(c1cncnc1)C(F)(F)c1ccc(OCc2ccc(C#N)cc2)cn1 (racemic) [Example 57] | > 4 µg/mL | –
17 | CC(C)C(O)(c1cncnc1)C(F)(F)c1ccc(C#Cc2ccc(F)cc2)cn1 (racemic) [Example 63] | 0.5 to 1.5 µg/mL (≈ 1.26 to 3.77 µM) | –
18 | OC(c1cncnc1)(c1ccc(F)cc1F)C(F)(F)c1ccc(C#Cc2ccc(NCC(F)(F)F)cc2)cn1 (racemic) [Example 36] | ≤ 0.5 µg/mL | –
19 | COc1ccc(COc2ccc(C(F)(F)C(O)(c3cncnc3)c3ccc(F)cc3F)nc2)cc1 (racemic) [Example 49] | 0.5 to 1.5 µg/mL (≈ 1.03 to 3.09 µM) | –
20 | CC(C)C(O)(c1cncnc1)C(F)(F)c1ccc(OCc2ccc(Cl)cc2)cn1 (racemic) [Example 53] | 0.5 to 1.5 µg/mL (≈ 1.19 to 3.57 µM) | –

Row | SMILES | MIC [1] | pest or weed control at 50 ppm [2]
21 | OC(c1cncnc1)(c1ccc(F)cc1F)C(F)(F)c1ccc(OCc2cccc(Cl)c2)cn1 (racemic) [Example 59] | 0.5 to 1.5 µg/mL (≈ 1.02 to 3.06 µM) | –
22 | OC(c1c[nH]nn1)(c1ccc(F)cc1F)C(F)(F)c1ccc(C#Cc2ccc(F)cc2)cn1 (racemic) [Example 26] | > 4 µg/mL | –
23 | CNc1ccc(CCc2ccc(C(F)(F)C(O)(c3cncnc3)c3ccc(F)cc3F)nc2)cc1 (racemic) [Example 33] | ≤ 0.5 µg/mL | –
24 | O=Cc1ccc(C#Cc2ccc(C(F)(F)C(O)(c3cncnc3)c3ccc(F)cc3F)nc2)cc1 (racemic) [Example 31] | 0.5 to 1.5 µg/mL (≈ 1.05 to 3.14 µM) | –
25 | OC(c1cnco1)(c1ccc(F)cc1F)C(F)(F)c1ccc(C#Cc2ccc(F)cc2)cn1 (racemic) [Example 29] | > 4 µg/mL | –
26 | OC(c1cccnn1)(c1ccc(F)cc1F)C(F)(F)c1ccc(C#Cc2ccc(F)cc2)cn1 (racemic) [Example 24] | > 4 µg/mL | –
27 | OC(c1cnccn1)(c1ccc(F)cc1F)C(F)(F)c1ccc(C#Cc2ccc(F)cc2)cn1 (racemic) [Example 25] | – | < 40%
28 | O/N=C/c1ccc(C#Cc2ccc(C(F)(F)C(O)(c3cncnc3)c3ccc(F)cc3F)nc2)cc1 (racemic) [Example 23] | 1.5 to 4 µg/mL (≈ 3.05 to 8.12 µM) | –
29 | Oc1ccc(C#Cc2ccc(C(F)(F)C(O)(c3cncnc3)c3ccc(F)cc3F)nc2)cc1 (racemic) [Example 19, 4-((6-(2-(2,4-Difluorophenyl)-1,1-difluoro-2-hydroxy-2-(pyrimidin-5-yl)ethyl)pyridin-3-yl)ethynyl)phenol] | ≤ 0.5 µg/mL | –
30 | N#Cc1ccc(COc2ccc(C(F)(F)C(O)(c3cncnc3)c3ccc(F)cc3F)nc2)cc1 (racemic) [Example 56] | 0.5 to 1.5 µg/mL (≈ 1.04 to 3.12 µM) | –
31 | N#Cc1ccc(C#Cc2ccc(C(F)(F)C(O)(c3ccc(F)cc3)c3cncnc3)nc2)cc1 (racemic) [Example 44] | > 4 µg/mL | –
32 | N#Cc1ccc(CCc2ccc(C(F)(F)C(O)(c3cncnc3)c3ccc(F)cc3F)nc2)cc1 (racemic) [Example 32] | ≤ 0.5 µg/mL | –
33 | N#Cc1ccc(-c2ccc(C(F)(F)C(O)(c3cncnc3)c3ccc(F)cc3F)nc2)cc1 (racemic) [Example 4, 4-(6-(2-(2,4-difluorophenyl)-1,1-difluoro-2-hydroxy-2-(pyrimidin-5-yl)ethyl)pyridin-3-yl)benzonitrile] | > 4 µg/mL | –
34 | CCC(O)(c1cncnc1)C(F)(F)c1ccc(C#Cc2ccc(C#N)cc2)cn1 (racemic) [Example 46] | 1.5 to 4 µg/mL (≈ 3.84 to 10.2 µM) | –
35 | OC(c1cncnc1)(c1ccc(F)cc1F)C(F)(F)c1ccc(OCc2ccc(C(F)F)cc2)cn1 (racemic) [Example 54] | > 4 µg/mL | –
36 | OC(c1cncs1)(c1ccc(F)cc1F)C(F)(F)c1ccc(C#Cc2ccc(F)cc2)cn1 (racemic) [Example 28] | 1.5 to 4 µg/mL (≈ 3.18 to 8.47 µM) | –
37 | CCCC(O)(c1cncnc1)C(F)(F)c1ccc(C#Cc2ccc(C#N)cc2)cn1 (racemic) [Example 45] | 1.5 to 4 µg/mL (≈ 3.71 to 9.89 µM) | –
38 | N#Cc1ccc(COc2ccc(C(F)(F)C(O)(c3cncnc3)c3ccc(F)cc3F)nc2)c(F)c1 (racemic) [Example 68] | – | 80 to 100%
39 | OC(c1cncnc1)(c1ccc(F)cc1F)C(F)(F)c1ccc(Oc2ccc(Cl)cc2)cn1 (racemic) [Example 40] | > 4 µg/mL | –
40 | OC(c1cc[nH]n1)(c1ccc(F)cc1F)C(F)(F)c1ccc(C#Cc2ccc(F)cc2)cn1 (racemic) [Example 30] | 1.5 to 4 µg/mL (≈ 3.29 to 8.78 µM) | –
